Tested on: Caco-2 cell monolayers
Test: Caco-2 cell monolayer Transwell model: formation and transport of hesperetin and its conjugates
Assay type: in vitro ADME
Details: 120 minutes upon exposure to 10 μM (5 nmol) hesperetin added to the apical compartment
Method: Caco-2 cell monolayers were grown on permeable filters that divide a two-compartment cell culture system. Although originally derived from a colonic adenoma carcinoma, differentiating Caco-2 cells are known to display morphological and biochemical properties of intestinal enterocytes including the formation of a polarized layer with expression of ABC transport proteins including Pgp, MRP1, MRP2 and BCRP and metabolizing enzymes.
Using the Caco-2 cell monolayer Transwell model in which the cells in the apical compartment were exposed to hesperetin, or combinations of hesperetin and other flavonoids, we studied the formation and transport of intestinal hesperetin conjugates, which were formed by the Caco-2 cells. 120 minutes upon exposure to 10 μM (5 nmol) hesperetin added to the apical compartment. […] These metabolites were identified as hesperetin 7-O-glucuronide and hesperetin 7-O-sulfate.

Compound	amount of metabolite in apical compartment compared to basolateral
COc1ccc([C@@H]2CC(=O)c3c(O)cc(OS(=O)(=O)O)cc3O2)cc1O [hesperetin 7-O-sulfate]	detected at much higher amounts in the apical compartment compared to the basolateral
COc1ccc([C@@H]2CC(=O)c3c(O)cc(O[C@@H]4O[C@H](C(=O)O)[C@@H](O)[C@H](O)[C@H]4O)cc3O2)cc1O [hesperetin 7-O-glucuronide]	detected at much higher amounts in the apical compartment compared to the basolateral

Reference: patent US8685935B2, “Use of flavonoids to increase the bioavailability of hesperetin” (Nestec S.A., priority 2009, dated 2014)
